Measurements: patent publication US20210040054A1, “Substituted Hydrophobic Benzene Sulfonamide Thiazole Compounds for Use in Treating Cancer” (INSERM (Institut National de la Sante et de la Recherche …, priority 2015, published 2021)
“Also recorded” adds a separate entry of the source.

Columns and labels:
Type in all cases: cell-based
A375 melanoma cells = assay: Cell viability, trypan blue exclusion cell counting (FIG. 1); details: compared to reference compound Ia-1
Description: (§1) Different melanoma cell lines were purchased from American Tissue Culture Collection (Molsheim, France). Cells were grown in RPMI 1640 (A375, WM9 and patient melanoma cells) or in DMEM medium (Mel501) supplemented with 10% FCS and penicillin/streptomycin (100 U/ml/[…]) at 37° C. and 5% CO2.
(§2) Cells were seeded in 6-well plates (60000 cells/well), depleted and incubated with compounds for the times indicated. Then cells were detached in the presence of 200 μl of HyQTase (Thermo) and 2 ml of RPMI 1640 Glutamax (Gibco) was added to the cell solution. 10 μl of this solution was stained for 1 minute with 10 μl of 0.4% trypan blue before counting with a Malassez chamber.
(§3) FIG. 1: the Effect of Compounds Ia-7, IIIa-3, IIIa-1, IIIa-2, 11a-2, 11a-9, Ia-4, Ha-11, IIa-12, IIa-6, Compared to Ia-1, on Cell Viability on A375 Melanoma Cells. Cell viability was assessed by measuring the number of cells alive in samples of different cells. The measure of cell viability as performed by cell counting using the trypan blue exclusion method. Results were expressed as the percentage of cells alive relatively to the number of living cells in the presence of DMSO, which corresponds to the negative control associated to the 100% value. […] The very active compounds IIa-2, IIIa-1 and IIIa-3 substituted in para position respectively with an octyne, hexyl and octyl chain, were selected to investigate their potential to promote cell death on resistant melanoma cell lines as well as other cancer cell lines. FIG. 2a. Effect of Compounds 11a-2, IIIa-1 and IIIa-3 on Cell Viability on Melanoma Cells. PLX4032 was Used as a Positive Control. […] FIG. 2b. Effect of Compounds IIa-2, IIIa-1 and IIIa-3 on Cell Viability on CML Cells. Imatinib was Used as a Positive Control. The activity of compounds IIa-2, IIIa-1 and IIIa-3 against CML cells was also evaluated. […] FIG. 2c. […] The compounds IIa-2, IIIa-1 and IIIa-3 were next evaluated against pancreatic cells, BxPC3 (sensitive) and MiaPACA cell lines (resistant to the nucleoside analog Gemcitabine).

[1] = test system: sensitive melanoma cell lines; assay: Cell viability on sensitive melanoma cell lines (FIG. 2a); details: 10 μM
Description: as §1, §2, §3

[2] = test system: resistant A375 R5C3 an A375 RIV cell lines; assay: Cell viability on resistant melanoma cell lines (FIG. 2a); details: resistant A375 R5C3 and A375 RIV cell lines; 10 μM
Description: as §1, §2
(§4) FIG. 1: the Effect of Compounds Ia-7, IIIa-3, IIIa-1, IIIa-2, 11a-2, 11a-9, Ia-4, Ha-11, IIa-12, IIa-6, Compared to Ia-1, on Cell Viability on A375 Melanoma Cells. Cell viability was assessed by measuring the number of cells alive in samples of different cells. The measure of cell viability as performed by cell counting using the trypan blue exclusion method. Results were expressed as the percentage of cells alive relatively to the number of living cells in the presence of DMSO, which corresponds to the negative control associated to the 100% value. […] The very active compounds IIa-2, IIIa-1 and IIIa-3 substituted in para position respectively with an octyne, hexyl and octyl chain, were selected to investigate their potential to promote cell death on resistant melanoma cell lines as well as other cancer cell lines. FIG. 2a. Effect of Compounds 11a-2, IIIa-1 and IIIa-3 on Cell Viability on Melanoma Cells. PLX4032 was Used as a Positive Control. […] FIG. 2b. Effect of Compounds IIa-2, IIIa-1 and IIIa-3 on Cell Viability on CML Cells. Imatinib was Used as a Positive Control. The activity of compounds IIa-2, IIIa-1 and IIIa-3 against CML cells was also evaluated. […] FIG. 2c. Effect of Compounds IIa-2, IIIa-1 and IIIa-3 on Cell Viability on Pancreatic Cancer Cells. Gemcitabine was Used as a Positive Control. The compounds IIa-2, IIIa-1 and IIIa-3 were next evaluated against pancreatic cells, BxPC3 (sensitive) and MiaPACA cell lines (resistant to the nucleoside analog Gemcitabine).

sensitive K562 CML cells = assay: Cell viability on sensitive CML cells (FIG. 2b); details: compared with Imatinib
Description: as §2, §4

resistant K562 cells = assay: Cell viability on resistant CML cells (FIG. 2b); details: compared with Imatinib
Description: as §2, §4

BxPC3 (sensitive) = assay: Cell viability on sensitive pancreatic cancer cells (FIG. 2c); details: compared with Gemcitabine
Description: as §2, §4

[3] = test system: MiaPACA cell lines (resistant to the nucleoside analog Gemcitabine); assay: Cell viability on Gemcitabine-resistant pancreatic cancer cells (FIG. 2c)
Description: as §2, §4

A375 melanoma cell line = assay: Western blot, mechanism of death: PARP cleavage (apoptosis) and LCII/LCIII conversion (autophagy) (FIG. 4); details: IIa-2 at 10 μM
Description: Proteins were extracted in Fisher buffer containing TRIS-HCl pH 7.5 50 mM, NaCl 15 mM, Triton X-100 1% and proteases and phosphatases inhibitors. Briefly, cell lysates (30 μg) were separated by SDS-PAGE, transferred onto a PVDF membrane (Millipore, Molsheim, France) and then exposed to the appropriate antibodies. Proteins were visualized with the ECL system from Amersham (Arlington, Heights, Ill., USA). The western blots shown are representative of at least 3 independent experiments.

human normal melanocytes = assay: Viability of normal melanocytes (FIG. 3); details: different concentration of IIa-2
Description: Normal human melanocytes (NHM) prepared from foreskins of newborns were grown under 5% CO2 at 37° C. in MCDB 153 (Sigma) supplemented with 2% FCS, bovine pituitary extract (10 μg/ml), PMA (8 nM), bFGF (1 ng/ml), insulin (5 μg/ml), hydrocortisone (0.5 μg/ml), forskolin (10 μM), gentamicin (20 μg/ml), penicillin/streptomycin/amphotericin B (100 U/ml) (Invitrogen).
as §2
(§5) Primary cell cultures of human normal melanocytes were prepared from human foreskin. In order to determine the effect of compound IIa-2 on cell viability of melanocytes and fibroblasts, different concentration of IIa-2 were added to the cell samples. The measure of cell viability was performed in the same way as for FIG. 1. Results are expressed as the percentage of living cells relatively to the number of living cells in the presence of DMSO, as for FIG. 1.

Normal human fibroblasts = assay: Viability of normal fibroblasts (FIG. 3); details: different concentration of IIa-2
Description: Normal human fibroblasts prepared from foreskins of newborns were grown under 5% CO2 at 37° C. in DMEM medium supplemented with 10% FCS and penicillin/streptomycin (100 U/ml/[…]).
as §2, §5

`CCCCCCc1ccc(S(=O)(=O)Nc2cccc(-c3csc(NC(C)=O)n3)c2)cc1` [IIIa-1, N-(4-(3-((4-hexylphenyl)sulfonamido)phenyl)thiazol-2-yl)acetamide] was tested, and the “cell viability (percentage of cells alive relatively to DMSO)” value (A375 melanoma cells) was “very active”, the cell viability [1] was “strong activity” and the cell viability [2] was “strong activity”. The cell viability (sensitive K562 CML cells) was “viability decrease in the same range than the standard BCR-ABL inhibitor Imatinib”, the cell viability (resistant K562 cells) was “much more active” and the cell viability (BxPC3 (sensitive)) was “very high activity”. For the same compound, the cell viability [3] was “still very active”.
`CCCCCCCCc1ccc(S(=O)(=O)Nc2cccc(-c3csc(NC(C)=O)n3)c2)cc1` [IIIa-3, N-(4-(3-((4-octylphenyl)sulfonamido)phenyl)thiazol-2-yl)acetamide] was tested, and the “cell viability (percentage of cells alive relatively to DMSO)” value (A375 melanoma cells) was “very active”, the cell viability [1] was “strong activity” and the cell viability [2] was “strong activity”. The cell viability (sensitive K562 CML cells) was “viability decrease in the same range than the standard BCR-ABL inhibitor Imatinib”, the cell viability (resistant K562 cells) was “much more active” and the cell viability (BxPC3 (sensitive)) was “very high activity”. For the same compound, the cell viability [3] was “still very active”.
With `CCCS(=O)(=O)Nc1ccc(F)c(C(=O)c2c[nH]c3ncc(-c4ccc(Cl)cc4)cc23)c1F` [PLX4032, reference compound] the cell viability [2] was “looses most activity” and the “mechanism of death: PARP cleavage (apoptosis) and LCII/LCIII conversion (autophagy)” value (A375 melanoma cell line) was “only apoptosis is induced”.
For `CCCCCCC#Cc1ccc(S(=O)(=O)Nc2cccc(-c3csc(NC(C)=O)n3)c2)cc1` [IIa-2, N-(4-(3-((4-(oct-1-yn-1-yl)phenyl)sulfonamido)phenyl)thiazol-2-yl)acetamide], the “cell viability (percentage of cells alive relatively to DMSO)” value (A375 melanoma cells) was “very active”, the cell viability [1] was “strong activity” and the cell viability [2] was “strong activity”. For the same compound, the cell viability (sensitive K562 CML cells) was “viability decrease in the same range than the standard BCR-ABL inhibitor Imatinib”, the cell viability (resistant K562 cells) was “much more active; also recorded: almost total mortality” and the cell viability (BxPC3 (sensitive)) was “very high activity; also recorded: total cell death”. The “cell viability of normal cells (percentage of living cells relatively to DMSO)” value (human normal melanocytes) was “no effect”, the “cell viability of normal cells (percentage of living cells relatively to DMSO)” value (Normal human fibroblasts) was “no effect” and the “mechanism of death: PARP cleavage (apoptosis) and LCII/LCIII conversion (autophagy)” value (A375 melanoma cell line) was “induced both apoptosis and autophagy cellular deaths”.
For `Nc1ccn([C@@H]2O[C@H](CO)[C@@H](O)C2(F)F)c(=O)n1` [Gemcitabine, reference compound], the cell viability [3] was “inactive”.
